From PubChem BioAssay (NCI) come the findings set out here.

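Dose response: 5 concentrations. Exposure: 48 h. Format: 96-well plates. Endpoint: linear interpolation; highest concentration if not reached. TGI marks complete inhibition of growth.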

Test in all cases: inhibition of tumour cell growth, NCI panel, 48 h
In experiment [1] the test system is SN12C renal.
Experiment [2] has as its system OVCAR-5 ovarian.
The test system of experiment [3] is SF-295 CNS.
Experiment [4] has as its system K-562 leukemia.
Experiment [5] deals with SF-268 CNS.
Experiment [6] relates to UACC-62 melanoma.
Experiment [7] deals with HT29 colon.
Experiment [8] concerns BT-549 breast.
In experiment [9] the test system is SF-539 CNS.
Experiment [10] has as its system UACC-257 melanoma.
Experiment [11] has as its system HS 578T breast.
The subject of experiment [12] is SK-MEL-28 melanoma.
Experiment [13] relates to PC-3 prostate.
The test system of experiment [14] is KM12 colon.
Experiment [15] concerns HOP-92 NSCLC.
Experiment [16] relates to 786-0 renal.
The subject of experiment [17] is TK-10 renal.
Experiment [18] relates to SK-OV-3 ovarian.
For experiment [19], the system named is SK-MEL-2 melanoma.
Experiment [20] deals with ACHN renal.

`O=C1C(Cl)C(c2cc3cc(Br)ccc3nc2Cl)N1c1c(Cl)cccc1Cl` (stereo not given): the TGI in [1] was greater than 25 µM; in [2], greater than 25 µM; in experiment [3] it was greater than 25 µM; in experiment [4], 18 µM; in experiment [5], greater than 25 µM; in [6] it was greater than 25 µM. Further, the TGI in experiment [7] is greater than 25 µM; in [8], greater than 25 µM; in [9] it was 10.7 µM; in experiment [10], greater than 25 µM; in experiment [11], greater than 25 µM; in [12] it was greater than 25 µM. The TGI in [13], in experiment [14], in experiment [15], in experiment [16], in [17] and in experiment [18] was greater than 25 µM each time. Further, the TGI in [19] and in [20] was greater than 25 µM each time.

Take `CC1=CC(C)(C)Nc2ccc(CSc3ccccc3)cc21`: the TGI is 62.1 µM in experiment [1]; 40.4 µM in experiment [2]; 48.2 µM in experiment [3]; greater than 100 µM in [4]; greater than 100 µM in experiment [5]; greater than 100 µM in [6]. For the same compound, the TGI in experiment [7] was 38.2 µM; in experiment [8] it was greater than 100 µM; in [9], greater than 100 µM; in [10], 59.3 µM; in experiment [11] it was greater than 100 µM; in experiment [12] it was greater than 100 µM. For the same compound, the TGI in experiment [13] is 89.8 µM; in experiment [14], 63.5 µM; in experiment [15] it was greater than 100 µM; in experiment [16], 72.1 µM; in [17], greater than 100 µM; in [18], 90.1 µM. The figures for the TGI in experiment [19] and in experiment [20] were 52.2 µM and greater than 100 µM, respectively.

Turning to `COc1cccc2cc(C(=O)Nc3ccccn3)c(=N)oc12`, the TGI in [1], in experiment [2], in experiment [3], in [4], in [5] and in experiment [6] was greater than 100 µM each time. For the same compound, the TGI in experiment [7], in experiment [8], in experiment [9], in [10], in [11] and in [12] was greater than 100 µM throughout. Also, the TGI in experiment [13], in experiment [14], in experiment [15], in experiment [16], in experiment [17] and in experiment [18] was greater than 100 µM each time. The TGI in experiment [19] and in [20] was greater than 100 µM in each case.

Regarding `CN1C(=O)C23CCCCC2CC1(c1ccccc1)S3` (stereo not given), the TGI in experiment [1], in [2], in [3], in [4], in experiment [5] and in experiment [6] was greater than 100 µM in each case. Also, the TGI was greater than 100 µM in experiment [7]; greater than 100 µM in [8]; greater than 100 µM in experiment [9]; 54.5 µM in [10]; greater than 100 µM in experiment [11]; greater than 100 µM in experiment [12]. Further, the TGI in experiment [13], in experiment [14], in [15], in experiment [16], in experiment [17] and in experiment [18] was greater than 100 µM each time. For the same compound, the TGI in experiment [19] and in experiment [20] was greater than 100 µM each time.

As for `CC[C@@H](/C=C\CCC1(C[C@@H](N)CCC=C(C)C)OCCO1)O[Si](C(C)C)(C(C)C)C(C)C`, the TGI in experiment [1] amounted to 31.6 µM; in [2], 31.1 µM; in experiment [3] it was 37.4 µM; in experiment [4] it was 31.1 µM; in experiment [5] it was 39.9 µM; in experiment [6], 31.9 µM. In addition, the TGI in [7] came out at 32 µM; in experiment [8] it was 35 µM; in [9], 34.1 µM; in experiment [10], 36.6 µM; in [11] it was 52.4 µM; in experiment [12], 38.4 µM. Also, the TGI in experiment [13] was 29.6 µM; in experiment [14], 35.3 µM; in [15], 28.7 µM; in experiment [16], 31.8 µM; in experiment [17] it was 31.2 µM; in [18], 37.8 µM. Moreover, the TGI in [19] was 31.7 µM; in experiment [20], 32 µM.

As to `CCC(=O)NCCc1c2c3c(ccnc3c3ncsc13)-c1ccccc1N2`, the TGI in [1] was greater than 100 µM; in experiment [2], greater than 100 µM; in [3], greater than 100 µM; in [4], greater than 100 µM; in experiment [5], greater than 100 µM; in experiment [6], greater than 67.1 µM. Also, the TGI in experiment [7] is greater than 100 µM; in experiment [8], 57.3 µM; in experiment [9] it was 7.52 µM; in [10], greater than 94.9 µM; in experiment [11], 18.7 µM; in experiment [12], greater than 100 µM. Besides, the TGI is greater than 100 µM in [13]; greater than 100 µM in [14]; greater than 100 µM in experiment [15]; greater than 55.4 µM in experiment [16]; greater than 100 µM in experiment [17]; greater than 100 µM in experiment [18]. For the same compound, the TGI is greater than 100 µM in [19] and greater than 38.3 µM in [20].

On to `NC(=O)C(Nc1ccc(Cl)cc1)c1cc2cc(Br)ccc2nc1Cl` (stereo not given), for which the TGI in experiment [1], in [2], in experiment [3], in [4], in experiment [5] and in experiment [6] was greater than 50 µM each time. In addition, the TGI in experiment [7], in experiment [8], in experiment [9], in experiment [10], in experiment [11] and in experiment [12] was greater than 50 µM throughout. The TGI is greater than 50 µM in experiment [13]; greater than 50 µM in [14]; greater than 50 µM in experiment [15]; greater than 50 µM in experiment [16]; 47.7 µM in experiment [17]; greater than 50 µM in experiment [18]. For the same compound, the TGI in experiment [19] and in experiment [20] was greater than 50 µM in each case.
